Results on 5 molecules are retold here after patent publication US9951021B2, “Compounds for inhibiting c-Myc/Max/DNA complex formation” (NATIONAL CANCER CENTER, priority 2016, dated 2018).

The term IC50 denotes the concentration that gives 50% inhibition.

Data set [1] deals with 253J. The experiment in a line: Selectivity evaluation, cytotoxicity in 253J. It counts as cell-based. The note with it: Homo sapiens; 253J (malignant), 72 hours, ATP detection. On the procedure:
(§1) Commercially available bladder cancer cell lines were treated with trypsin-EDTA and seeded in each well of a 96 well plate, followed by incubation for 24 hours. After incubation, candidate compounds were added to each well at a final concentration of 0 to 2 μM. The compound-treated cells were further incubated for 72 hours. Cell viability was measured using an ATP detection method (CellTiter-Glo® Luminescent Cell Viability Assay, Promega).
(§2) The selectivity of the compounds of the present disclosure to cancer cells was evaluated in the same manner as described in “2. Cell based assay”.
253J: human urinary tract transitional cell carcinoma

Data set [2] relates to UM-UC-3. The experiment in a line: Selectivity evaluation, cytotoxicity in UM-UC-3. Conditions: Homo sapiens, UMUC3; UM-UC-3 (malignant), 72 hours, ATP detection. The data set is classed as cell-based. On the procedure:
as §1, §2
UM-UC-3: human urinary bladder transitional cell carcinoma

Data set [3] addresses T1, recombinant c-Myc/Max (Homo sapiens, UniProt P01106+P61244).
T1 construct: made in house
The experiment in a line: Electrophoretic mobility shift assay (EMSA): inhibitory activity on DNA binding of recombinant c-Myc/Max. Conditions: read-out: protein assay IC50. The gist of the method: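 Protein mixture preincubated 5 min at room temperature, compound in DMSO added for 5 min, then biotinylated annealed E-box DNA for 10 min to equilibrium. Complexes resolved on 8% polyacrylamide in 1×TBE (120 V, 1 h), detected with HRP-streptavidin/ECL; protein-DNA complex ratio from band intensity.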
For orientation: A gel shift assay detects complexes by their altered migration in electrophoresis.

The test system of data set [4] is Mouse. The experiment in a line: IV and IP single toxicity test. The note with it: for Percentage (deaths), single toxicity evaluation: Mouse. The data set is classed as in vivo.

T1 sequence (P01106 whole entry): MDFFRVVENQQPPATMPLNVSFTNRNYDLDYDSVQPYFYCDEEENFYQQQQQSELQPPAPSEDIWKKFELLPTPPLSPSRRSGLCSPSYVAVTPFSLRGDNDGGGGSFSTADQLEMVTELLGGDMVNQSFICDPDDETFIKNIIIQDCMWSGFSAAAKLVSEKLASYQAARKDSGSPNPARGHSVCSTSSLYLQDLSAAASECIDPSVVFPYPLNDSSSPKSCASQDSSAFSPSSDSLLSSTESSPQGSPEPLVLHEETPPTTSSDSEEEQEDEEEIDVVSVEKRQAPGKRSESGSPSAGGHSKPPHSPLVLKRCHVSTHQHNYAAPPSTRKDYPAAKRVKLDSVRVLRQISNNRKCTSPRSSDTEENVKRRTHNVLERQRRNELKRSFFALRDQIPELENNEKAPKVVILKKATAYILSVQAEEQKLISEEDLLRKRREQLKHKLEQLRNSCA
T1 sequence (P61244 whole entry): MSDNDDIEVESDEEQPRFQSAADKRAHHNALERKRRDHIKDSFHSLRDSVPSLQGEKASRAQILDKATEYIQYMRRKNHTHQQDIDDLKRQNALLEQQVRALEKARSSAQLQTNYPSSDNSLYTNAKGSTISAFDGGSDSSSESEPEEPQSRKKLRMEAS

Take `CC(=O)c1c([S+]([O-])Cc2ccc([N+](=O)[O-])cc2)[nH]c2c(Br)ccc(Cl)c2c1=O` (stereo not drawn) [Compound 33, 3-acetyl-8-bromo-5-chloro-2-((4-nitrobenzyl)sulfinyl)quinolin-4(1H)-one]: the IC50 is 1600 nM in data set [1], 1600 nM in data set [2] and < 1000 nM in data set [3].
For the molecule `CC(=O)c1c([S+]([O-])Cc2ccccc2)nc2c(Br)ccc(Cl)c2c1O` (stereo not drawn) [Compound 4, 3-acetyl-2-(benzylsulfinyl)-8-bromo-5-chloroquinolin-4(1H)-one], the values for the IC50 in data set [1] and in data set [2] were 1100 nM and 1500 nM, respectively. Moreover, the deaths result in data set [4] (IV and IP single-dose administration, 40 mpk, 40 mg/kg) is listed as “No deaths were observed”. For the same molecule, the “Percentage (deaths), single toxicity evaluation” value in data set [4] (Female, IP 40 mg/kg) is on record as 0 (0/2) %; in data set [4] (Female, IV 40 mg/kg), 0 (0/2) %; in data set [4] (Male, IP 40 mg/kg), 0 (0/2) %.
Take `CC(=O)c1c([S+]([O-])CC#N)[nH]c2c(Br)ccc(Cl)c2c1=O` (stereo not drawn) [Compound 65, 2-((3-acetyl-8-bromo-5-chloro-4-oxo-1,4-dihydroquinolin-2-yl)sulfinyl)acetonitrile]: the IC50 in data set [3] was < 1000 nM.
On the same count and under the same terms, the same measure for `CSc1c(C(C)=O)c(=O)c2cc(F)ccc2n1C` [Compound 7, 3-acetyl-6-fluoro-1-methyl-2-(methylthio)quinolin-4(1H)-one]: < 1000 nM; for `CSc1[nH]c2ccc(F)cc2c(=O)c1C(C)=O` [Compound 8, 1-(6-fluoro-4-hydroxy-2-(methylthio)quinolin-3-yl)ethan-1-one]: < 1000 nM.
